Data as given in patent US6133304A, “ACE inhibitor-MMP inhibitor combinations” (priority 2000, dated 2000).

Experiments:
[1] = system: fibroblast; conditions: tissue culture cells; cited from earlier work
[2] = system: spontaneously hypertensive heart failure (SHHF) rats; experiment: 8-month progression study in SHHF rats (Example 1); assay type: in vivo, rat; conditions: for LVEDP (left ventricular end-diastolic pressure) / LVESP (left ventricular end-systolic pressure) / LVV-OP: SHHF rats, 8 months in diet; for LVEDP (left ventricular end-diastolic pressure) / LVESP (left ventricular end-systolic pressure): PD 166793 5 mg/kg/day, quinapril 10 mg/kg/day or both; for LVV-OP: left ventricular pressure volume relations, KCl arrested heart
Protocol: Five groups of rats (n=14 per group) were tested: 17-month-old normotensive Fischer control Rats (F-1 7); vehicle treated 17-month-old SHHF Rats (SHHF-17); PD 166793-0000 (Lot Y) SHHF Rats (SHHF-793); Quinapril (PD 109452-0002, Lot Y) SHHF Rats (SHHF-Q); PD 166793 +Quinapril SHHF Rats (SHHF-793Q). Naive Fischer rats were acclimatized 2 weeks prior to testing. All SHHF rats were maintained in-house, administered drug for 8 months, and then cardiovascular tests were performed and tissue samples taken. The primary endpoint for the study was the prevention of cardiac dilation as determined by left ventricular pressure volume relations in the excised KCI arrested heart.
Drug Administration: All SHHF rats were fed powdered rat chow for 1 week prior to drug administration, and daily food consumption was measured by weighing the foodcups. Drug was added to powdered rat chow so that rats consumed their daily dose of PD 166793 (5 mg/kg/day), quinapril (10 mg/kg/day), or both drugs in combination. Food consumption was monitored twice weekly.
Terminal Cardiovascular Test: Rats were anesthetized with isoflurane for terminal testing. Isoflurane was administered using a mask until the rats are anesthetized and a tracheotomy performed. The rats were respired using a ventilator (A.D.S. 1000, Engler Engineering Corp., Hialeah, Fla.). Cardiac function was assessed in closed-chest rats by measuring LV dP/dt, LV end-diastolic pressure (EDP), heart rate, and aortic blood pressure using a Millar pressure transducer inserted through the right carotid. Physiological data was recorded at 500 Hz, and a logging rate of 5 seconds was used to average data. […] Baseline measurements were made when the rats reached a stable plateau of anesthesia. Normotensive rats had their blood pressure increased by partial occlusion of the aorta so that cardiovascular function could be assessed at a pressure of 180 mmHg, the projected blood pressure of SHHF rats. Approximately 4 to 5 mL of blood were withdrawn in ice-cold syringes and then transferred to ice-cold EDTA tubes. Blood was centrifuged at 4500 RPM for 10 minutes so that plasma could be stored for drug measurements, and measuring collagen breakdown products. The heart was arrested with KCl and rapidly excised. A glass cannula was inserted through the aorta into the LV chamber, and secured into place by a ligature around the atrio-ventricular groove. Cardiac dilation was measured by generating left ventricular pressure volume (PV) curves. The PV curves was generated by evacuating the LV of saline and then filling the LV at a fixed rate using a programmable pump set at a 1 mL/min flow rate. The PV curves were recorded on a Po-Ne-Mah digital data acquisition system. A 2 to 3 mm cross-section of the heart was removed (at the level of the papillary muscles). The remainder of the heart was rapidly divided into RV and LV tissue that was frozen in liquid N2 for subsequent weighing and biochemical analysis. The cross-sections were fixed in buffered formalin for histology. This procedure will allow LV, and RV weights to be determined and hypertrophy to be assessed.

[3] = PD 166793 plasma levels in SHHF rats (Example 1); assay type: in vivo; conditions: rat, po, 5 mg/kg/day PD 166793 in diet, 8 months
Protocol: Drug Administration: […] Food consumption was monitored twice weekly. Terminal Cardiovascular Test: Rats were anesthetized with isoflurane for terminal testing. Isoflurane was administered using a mask until the rats are anesthetized and a tracheotomy performed. The rats were respired using a ventilator ([…] Engineering Corp., Hialeah, Fla.). Cardiac function was assessed in closed-chest rats by measuring LV dP/dt, LV end-diastolic pressure (EDP), heart rate, and aortic blood pressure using a Millar pressure transducer inserted through the right carotid. Physiological data was recorded at 500 Hz, and a logging rate of 5 seconds was used to average data. […] Baseline measurements were made when the rats reached a stable plateau of anesthesia. […] Approximately 4 to 5 mL of blood were withdrawn in ice-cold syringes and then transferred to ice-cold EDTA tubes. […] The heart was arrested with KCl and rapidly excised. A glass cannula was inserted through the aorta into the LV chamber, and secured into place by a ligature around the atrio-ventricular groove. Cardiac dilation was measured by generating left ventricular pressure volume (PV) curves. […] The PV curves were recorded on a Po-Ne-Mah digital data acquisition system. […] This procedure will allow LV, and RV weights to be determined and hypertrophy to be assessed.

[4] = system: pigs subjected to rapid pacing; experiment: rapid-paced pig model of heart failure (Example 2); assay type: in vivo; conditions: for LV End-Systolic Pressure / Pulmonary Vascular Resistance / Systemic Vascular Resistance / Plasma Norepinephrine: Day 21 of pacing, 793 2 mg/kg/day PO, F […] BID PO; for LV End-Systolic Pressure / Pulmonary Vascular Resistance / Systemic Vascular Resistance: pacer off; for LV End-Systolic Pressure / Plasma Norepinephrine: spread printed in the next line; for Pulmonary Vascular Resistance / Systemic Vascular Resistance: spread printed in the next lines; for LV end-diastolic dimension (dilation), in words / LV wall stress, in words: echocardiography, 3-week pacing period
[5] = system: spontaneously hypertensive heart failure (SHHF) rats; experiment: previous 4-month experiment in SHHF rats; assay type: in vivo, rat; conditions: for cardiac dilation, in words / left ventricular (LV) systolic function, in words: 4 months
[6] = in vivo; conditions: pig, po, 2 mg/kg/day
[7] = molecular target: MMP-3 (stromelysin) (Homo sapiens, UniProt P08254); experiment: thiopeptolide substrate hydrolysis assay, MMP-3; assay type: biochemical; conditions: pH 6.0, 22° C., read-out: IC50 MMP3
Protocol: The assays measure the amount by which a test compound reduces the hydrolysis of a thiopeptolide substrate caused by a matrix metalloproteinase enzyme.
Thiopeptolide substrates show virtually no decomposition or hydrolysis in the absence of a matrix metalloproteinase enzyme. A typical thiopeptolide substrate commonly utilized for assays is Ac-Pro-Leu-Gly-thioester-Leu-Leu-Gly-O Et. […] Assays are carried out with and without matrix metalloproteinase inhibitor compounds, and the amount of hydrolysis is compared for a determination of inhibitory activity of the test compounds.

[8] = relative to untreated rapid-paced pigs, FIG. 5

Chain of MMP-3 (stromelysin) (P08254 100-272 limits assumed): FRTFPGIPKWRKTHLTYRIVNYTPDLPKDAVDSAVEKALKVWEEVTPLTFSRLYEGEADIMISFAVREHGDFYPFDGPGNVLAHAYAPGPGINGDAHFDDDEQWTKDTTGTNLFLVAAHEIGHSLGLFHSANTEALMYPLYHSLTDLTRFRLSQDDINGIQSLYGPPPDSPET

SMILES	LVEDP (left ventricular end-diastolic pressure) [2]	LVESP (left ventricular end-systolic pressure) [2]	LVV-OP [2]	LV End-Systolic Pressure [4]	Pulmonary Vascular Resistance [4]	Systemic Vascular Resistance [4]	Plasma Norepinephrine [4]	LV end-diastolic dimension (dilation), in words [4]	LV wall stress, in words [4]	cardiac dilation, in words [5]	left ventricular (LV) systolic function, in words [5]	also measured
NNC(=O)c1ccccc1 [Benzoic hydrazide, benzoic hydrazide]	–	–	–	–	–	–	–	–	–	–	–	collagen synthesis, in words [1]: suppress collagen synthesis; fibroblast proliferation, in words [1]: suppress collagen synthesis and fibroblast proliferation
CC(C)C(NS(=O)(=O)c1ccc(-c2ccc(Br)cc2)cc1)C(=O)O (stereo not shown) [PD 166793, 2-(4'-bromobiphenyl-4-sulfonylamino)-3-methyl-butyric acid]	18 ± 3 mmHg	188 ± 8 mmHg	820 ± 58 µL	110 mmHg	417 dynes*s*cm^-5	2784 dynes*s*cm^-5	736 pg/mL	reduce wall stress and end diastolic dimension	reduce wall stress	significantly reducing cardiac dilation	maintaining left ventricular (LV) systolic function	concentration at 5840 h [3]: 50100 ± 7100 ng/mL; LV chamber stiffness, in words [4, 8]: increased both LV chamber stiffness and myocardial stiffness; myocardial stiffness, in words [4, 8]: increased both LV chamber stiffness and myocardial stiffness; mechanism (vasodilator, anti-hypertrophic), in words [5]: neither a vasodilator, nor an anti-hypertrophic; concentration at 1 h [6]: 10800 ± 1200 ng/mL
CC(C)CC(CC(=O)NO)C(=O)N[C@@H](CC(C)C)C(=O)N[C@@H](Cc1ccccc1)C(N)=O (stereo partly shown) [U24522]	–	–	–	–	–	–	–	–	–	–	–	IC50 [7]: 20 nM
CCC(=O)O[C@@H](O[P@](=O)(CCCCc1ccccc1)CC(=O)N1C[C@H](C2CCCCC2)C[C@H]1C(=O)O)C(C)C [fosinopril]	–	–	–	100 mmHg	266 dynes*s*cm^-5	1529 dynes*s*cm^-5	618 pg/mL	reduce wall stress and end diastolic dimension	reduce wall stress	–	–	systolic function, slope of circumferential velocity over end-systolic stress relation (Vcfc-ES Stress), in words ([4]; compared to nontreated rapid-paced animals, FIG. 4): significantly improved systolic function; LV end-diastolic dimension (dilation), in words ([4]; listed as Fosinopril): more effective than the PD 166793 in reducing dilation; systolic function measured as preload recruitable stroke work (PRSW), in words ([4]; rapid-paced pigs, FIG. 3): improved systolic function to the greatest extent
CCOC(=O)[C@H](CCc1ccccc1)N[C@@H](C)C(=O)N1Cc2ccccc2C[C@H]1C(=O)O [quinapril]	17 ± 4 mmHg	190 ± 7 mmHg	603 ± 99 µL	–	–	–	–	–	–	A similar effect was also observed	A similar effect was also observed	LV weight, in words ([2]; compared to the vehicle control group): reduced
